Laboratory results: EP2842558A1, “CGRP RESP[…]” (Kao Corporation, priority 2012, dated 2013)

Test system: Normal human coronary artery smooth muscle cells (HCASMC)
Assay: Measurement of responsiveness to CGRP (intracellular cAMP EIA after 0.5 nM CGRP stimulation)
Assay type: cell-based
Settings: lignan at predetermined concentrations during 60 min PDI infiltration and 15 min 0.5 nM CGRP stimulation, control = 0.5 nM CGRP only (100% = 1189.3 fmol/well), Dunnett's test, N = 3, Fig. 1
Experimental: Normal human coronary artery smooth muscle cells (HCASMC; Kurabo Industries, Ltd., cell lot #01272) were cultured in a growth medium (product obtained by adding 25 ml of FBS, 0.5 ml of hEGF, 0.5 ml of hFGF-B, 0.5 ml of insulin and 0.5 ml of an antibacterial agent to 500 ml of basal medium HuMedia-SB2; Kurabo Industries, Ltd). 0.025% Trypsin/0.01% EDTA was used for the passage. […]
The cells were washed twice with a basal medium (HuMedia-SB2; Kurabo Industries, Ltd.) containing phosphodiesterase inhibitors (PDI), IBMX (3-isobutyl-1-methylxanthine, 500 µM, Sigma-Aldrich Co.), Ro-20-1724 (100 µM; Wako Pure Chemical Industries, Ltd.), and a lignan compound shown below at a predetermined concentration. […] Termination of the reaction was carried out by adding a lysis buffer attached to a cAMP analysis EIA kit (cAMP EIA (non-acetylation); GE Healthcare Biosciences Corp.) to the cells, and the intracellular cAMP concentration ([cAMP]i) was measured according to the method described in the manual. […]
HCASMC (Kurabo Industries, Ltd., cell lot #01272) was prepared under the same conditions as those used in Example 1. […] Thereafter, the cellular responsiveness to CGRP was measured by the same method as that used in Example 1.

Row | Compound | cellular responsiveness to CGRP (Improve Index, percentage of [cAMP]i)
1 | COc1cc([C@@H]2c3cc4c(c(OC)c3C[C@H]3COC(=O)[C@@H]32)OCO4)cc(OC)c1OC [TD-1] | significantly promoted the cellular responsiveness to CGRP in a concentration-dependent manner
2 | COc1cc([C@@H]2c3cc4c(cc3C[C@H]3COC(=O)[C@@H]32)OCO4)cc(OC)c1OC [TD-2] | significantly promoted the cellular responsiveness to CGRP in a concentration-dependent manner
